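Briefly, cells in 96-well plates were exposed to five compound concentrations for 48 h, and endpoints were estimated by linear interpolation. TGI marks complete inhibition of growth.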
Columns and labels:
Experiment in all cases: growth of human tumour cells (NCI), 48 h
786-0 renal = tested on: 786-0 renal
A498 renal = tested on: A498 renal
A549 NSCLC = tested on: A549 NSCLC
ACHN renal = tested on: ACHN renal
BT-549 breast = tested on: BT-549 breast
CAKI-1 renal = tested on: CAKI-1 renal
CCRF-CEM leukemia = tested on: CCRF-CEM leukemia
COLO 205 colon = tested on: COLO 205 colon
DU-145 prostate = tested on: DU-145 prostate
EKVX NSCLC = tested on: EKVX NSCLC
HCC-2998 colon = tested on: HCC-2998 colon
HCT-116 colon = tested on: HCT-116 colon
HCT-15 colon = tested on: HCT-15 colon
HL-60(TB) leukemia = tested on: HL-60(TB) leukemia
HOP-62 NSCLC = tested on: HOP-62 NSCLC
HOP-92 NSCLC = tested on: HOP-92 NSCLC
HS 578T breast = tested on: HS 578T breast
HT29 colon = tested on: HT29 colon
IGROV1 ovarian = tested on: IGROV1 ovarian
K-562 leukemia = tested on: K-562 leukemia
KM12 colon = tested on: KM12 colon
LOX IMVI melanoma = tested on: LOX IMVI melanoma
M14 melanoma = tested on: M14 melanoma
MALME-3M melanoma = tested on: MALME-3M melanoma
MCF7 breast = tested on: MCF7 breast
MDA-MB-231 breast = tested on: MDA-MB-231 breast
MDA-MB-435 = tested on: MDA-MB-435
MDA-N = tested on: MDA-N
MOLT-4 leukemia = tested on: MOLT-4 leukemia
NCI-H226 lung = tested on: NCI-H226 lung
NCI-H23 lung = tested on: NCI-H23 lung
NCI-H460 lung = tested on: NCI-H460 lung
NCI-H522 lung = tested on: NCI-H522 lung
NCI/ADR-RES ovarian = tested on: NCI/ADR-RES ovarian
OVCAR-3 ovarian = tested on: OVCAR-3 ovarian
OVCAR-4 ovarian = tested on: OVCAR-4 ovarian
OVCAR-5 ovarian = tested on: OVCAR-5 ovarian
OVCAR-8 ovarian = tested on: OVCAR-8 ovarian
PC-3 prostate = tested on: PC-3 prostate
RPMI-8226 leukemia = tested on: RPMI-8226 leukemia
RXF 393 renal = tested on: RXF 393 renal
SF-268 CNS = tested on: SF-268 CNS
SF-295 CNS = tested on: SF-295 CNS
SF-539 CNS = tested on: SF-539 CNS
SK-MEL-2 melanoma = tested on: SK-MEL-2 melanoma
SK-MEL-28 melanoma = tested on: SK-MEL-28 melanoma
SK-MEL-5 melanoma = tested on: SK-MEL-5 melanoma
SK-OV-3 ovarian = tested on: SK-OV-3 ovarian
SN12C renal = tested on: SN12C renal
SNB-19 CNS = tested on: SNB-19 CNS
SNB-75 CNS = tested on: SNB-75 CNS
T-47D breast = tested on: T-47D breast
TK-10 renal = tested on: TK-10 renal
U251 CNS = tested on: U251 CNS
UACC-257 melanoma = tested on: UACC-257 melanoma
UACC-62 melanoma = tested on: UACC-62 melanoma
UO-31 renal = tested on: UO-31 renal
SW-620 colon = tested on: SW-620 colon

**Q.** Which results are given for `COc1ccc([N+](=O)[O-])c2c(NCCCN(C)C)c3ccccc3nc12`?
**A.** TGI (786-0 renal): 0.504 µM; TGI (A498 renal): 0.0733 µM; TGI (A549 NSCLC): 0.895 µM; TGI (ACHN renal): 0.389 µM; TGI (BT-549 breast): 2.83 µM; TGI (CAKI-1 renal): 5.7 µM; TGI (CCRF-CEM leukemia): > 100 µM; TGI (COLO 205 colon): 0.26 µM; TGI (DU-145 prostate): 1.79 µM; TGI (EKVX NSCLC): 0.557 µM; TGI (HCC-2998 colon): 0.0727 µM; TGI (HCT-116 colon): 0.978 µM; TGI (HCT-15 colon): 1.39 µM; TGI (HL-60(TB) leukemia): 3.8 µM; TGI (HOP-62 NSCLC): 0.399 µM; TGI (HOP-92 NSCLC): 0.4 µM; TGI (HS 578T breast): 4.29 µM; TGI (HT29 colon): 1.22 µM; TGI (IGROV1 ovarian): 0.234 µM; TGI (K-562 leukemia): 3.76 µM; TGI (KM12 colon): 0.509 µM; TGI (LOX IMVI melanoma): 5.11 µM; TGI (M14 melanoma): 0.572 µM; TGI (MALME-3M melanoma): 0.336 µM; TGI (MCF7 breast): 0.203 µM; TGI (MDA-MB-231 breast): 2.31 µM; TGI (MDA-MB-435): 1.17 µM; TGI (MDA-N): 1.55 µM; TGI (MOLT-4 leukemia): 1.39 µM; TGI (NCI-H226 lung): 0.862 µM; TGI (NCI-H23 lung): 0.402 µM; TGI (NCI-H460 lung): 0.257 µM; TGI (NCI-H522 lung): 0.145 µM; TGI (NCI/ADR-RES ovarian): 23.5 µM; TGI (OVCAR-3 ovarian): 0.442 µM; TGI (OVCAR-4 ovarian): 0.206 µM; TGI (OVCAR-5 ovarian): 0.984 µM; TGI (OVCAR-8 ovarian): 4.9 µM; TGI (PC-3 prostate): 0.372 µM; TGI (RPMI-8226 leukemia): 2.17 µM; TGI (RXF 393 renal): 0.253 µM; TGI (SF-268 CNS): 3.44 µM; TGI (SF-295 CNS): 0.693 µM; TGI (SF-539 CNS): 1.49 µM; TGI (SK-MEL-2 melanoma): 0.281 µM; TGI (SK-MEL-28 melanoma): 13.4 µM; TGI (SK-MEL-5 melanoma): 0.243 µM; TGI (SK-OV-3 ovarian): 2.38 µM; TGI (SN12C renal): 1.43 µM; TGI (SNB-19 CNS): 3.51 µM; TGI (SNB-75 CNS): 0.802 µM; TGI (T-47D breast): 3.95 µM; TGI (TK-10 renal): 2.43 µM; TGI (U251 CNS): 2.05 µM; TGI (UACC-257 melanoma): 0.531 µM; TGI (UACC-62 melanoma): 0.285 µM; TGI (UO-31 renal): 1.15 µM

**Q.** How did the TGI (786-0 renal) turn out when `CN(C)C=C1C(=O)c2c(Br)sc(Br)c2C1=O` was run?
**A.** The TGI was over 100 µM.

**Q.** What about the TGI (A498 renal) of the same molecule?
**A.** Its TGI is 47.8 µM.

**Q.** What about the TGI (A549 NSCLC) of the same molecule?
**A.** The TGI was over 100 µM.

**Q.** And the TGI (ACHN renal)?
**A.** The TGI was 93.7 µM.

**Q.** And the TGI (BT-549 breast)?
**A.** The TGI was 48.4 µM.

**Q.** What about the TGI (CAKI-1 renal) of the same molecule?
**A.** The TGI was 36 µM.

**Q.** And the TGI (CCRF-CEM leukemia)?
**A.** The TGI was over 100 µM.

**Q.** And the TGI (COLO 205 colon)?
**A.** Its TGI is 37.7 µM.

**Q.** What about the TGI (DU-145 prostate) of the same molecule?
**A.** The TGI was over 100 µM.

**Q.** What about the TGI (EKVX NSCLC) of the same molecule?
**A.** Its TGI is 40.5 µM.

**Q.** And the TGI (HCC-2998 colon)?
**A.** The TGI was 25.9 µM.

**Q.** And the TGI (HCT-116 colon)?
**A.** The TGI was 53.9 µM.

**Q.** And the TGI (HCT-15 colon)?
**A.** Its TGI is 54.7 µM.

**Q.** What about the TGI (HL-60(TB) leukemia) of the same molecule?
**A.** Its TGI is 53.7 µM.

**Q.** And the TGI (HOP-62 NSCLC)?
**A.** The TGI was 91.4 µM.

**Q.** What about the TGI (HOP-92 NSCLC) of the same molecule?
**A.** The TGI was 37.1 µM.

**Q.** And the TGI (HS 578T breast)?
**A.** Its TGI is 46.9 µM.

**Q.** What about the TGI (HT29 colon) of the same molecule?
**A.** Its TGI is 86.5 µM.

**Q.** And the TGI (IGROV1 ovarian)?
**A.** The TGI was 46.8 µM.

**Q.** What about the TGI (K-562 leukemia) of the same molecule?
**A.** The TGI was 66.4 µM.

**Q.** And the TGI (KM12 colon)?
**A.** The TGI was over 100 µM.

**Q.** And the TGI (LOX IMVI melanoma)?
**A.** The TGI was 38.9 µM.

**Q.** What about the TGI (M14 melanoma) of the same molecule?
**A.** The TGI was 33.8 µM.

**Q.** What about the TGI (MALME-3M melanoma) of the same molecule?
**A.** Its TGI is 29.3 µM.

**Q.** And the TGI (MCF7 breast)?
**A.** Its TGI is over 100 µM.

**Q.** What about the TGI (MDA-MB-435) of the same molecule?
**A.** The TGI was 29.5 µM.

**Q.** And the TGI (MDA-N)?
**A.** Its TGI is 42.1 µM.

**Q.** What about the TGI (MOLT-4 leukemia) of the same molecule?
**A.** Its TGI is over 100 µM.

**Q.** And the TGI (NCI-H226 lung)?
**A.** Its TGI is 33.3 µM.

**Q.** What about the TGI (NCI-H23 lung) of the same molecule?
**A.** Its TGI is 37.8 µM.

**Q.** And the TGI (NCI-H460 lung)?
**A.** The TGI was 48.7 µM.

**Q.** What about the TGI (NCI-H522 lung) of the same molecule?
**A.** The TGI was 31.5 µM.

**Q.** And the TGI (NCI/ADR-RES ovarian)?
**A.** Its TGI is 73.2 µM.

**Q.** What about the TGI (OVCAR-3 ovarian) of the same molecule?
**A.** Its TGI is 40.8 µM.

**Q.** And the TGI (OVCAR-4 ovarian)?
**A.** The TGI was 31.7 µM.

**Q.** What about the TGI (OVCAR-5 ovarian) of the same molecule?
**A.** Its TGI is 76.2 µM.

**Q.** And the TGI (OVCAR-8 ovarian)?
**A.** Its TGI is 72.3 µM.

**Q.** And the TGI (PC-3 prostate)?
**A.** The TGI was 49.9 µM.

**Q.** And the TGI (RPMI-8226 leukemia)?
**A.** Its TGI is over 100 µM.

**Q.** What about the TGI (RXF 393 renal) of the same molecule?
**A.** The TGI was 42.4 µM.

**Q.** What about the TGI (SF-268 CNS) of the same molecule?
**A.** Its TGI is 32.5 µM.

**Q.** What about the TGI (SF-295 CNS) of the same molecule?
**A.** The TGI was 49.7 µM.

**Q.** What about the TGI (SF-539 CNS) of the same molecule?
**A.** The TGI was 35.7 µM.

**Q.** What about the TGI (SK-MEL-2 melanoma) of the same molecule?
**A.** Its TGI is 31.3 µM.

**Q.** And the TGI (SK-MEL-28 melanoma)?
**A.** The TGI was 31.3 µM.

**Q.** And the TGI (SK-MEL-5 melanoma)?
**A.** The TGI was 30.6 µM.

**Q.** And the TGI (SK-OV-3 ovarian)?
**A.** Its TGI is 62.7 µM.

**Q.** What about the TGI (SN12C renal) of the same molecule?
**A.** The TGI was over 100 µM.

**Q.** And the TGI (SNB-19 CNS)?
**A.** Its TGI is 80.4 µM.

**Q.** And the TGI (SNB-75 CNS)?
**A.** Its TGI is 43.5 µM.

**Q.** And the TGI (SW-620 colon)?
**A.** Its TGI is over 100 µM.

**Q.** What about the TGI (T-47D breast) of the same molecule?
**A.** The TGI was over 100 µM.

**Q.** What about the TGI (TK-10 renal) of the same molecule?
**A.** Its TGI is 99.7 µM.

**Q.** And the TGI (U251 CNS)?
**A.** Its TGI is 39.6 µM.

**Q.** What about the TGI (UACC-257 melanoma) of the same molecule?
**A.** The TGI was 33 µM.

**Q.** What about the TGI (UACC-62 melanoma) of the same molecule?
**A.** Its TGI is 37.1 µM.

**Q.** What about the TGI (UO-31 renal) of the same molecule?
**A.** Its TGI is 47.5 µM.
